According to publication PMC3744471, “Mitochondria Are the Target Organelle of Differentiation-Inducing Factor-3, an Anti-Tumor Agent Isolated from Dictyostelium Discoideum” (PLoS ONE, 2013):

Columns and labels:
[1] = system: mouse liver mitochondria; assay: Mitochondrial oxygen consumption (Clark-type oxygen electrode); assay type: biochemical; details: for Effect on basal rate of O2 consumption: 1–100 µM; for PC100 (µM) for Mito. O2 consumption: 100% promoting concentration: doubles the basal rate of oxygen consumption, 30°C
Description: Mitochondria were isolated from mouse liver (ICR; 7–10 week-old females) by differential centrifugation as described previously. Cells were homogenized in a Potter glass homogenizer with H-Buffer (250 mM sucrose, 10 mM Tris-HCl pH 7.4), and centrifuged at 800g for 1 min at 4°C. The supernatant was centrifuged at 6,000g for 5 min, and the resulting pellet, the crude mitochondrial fraction, was suspended in H-Buffer. The suspension was layered over a discontinuous sucrose gradient consisting of 1.1 M and 1.6 M sucrose in a Tris buffer (10 mM Tris-HCl pH 7.4), and centrifuged for 3 h at 90,000g at 4°C. The interface was collected in Tris buffer and centrifuged at 6,000g for 5 min. The resulting pellets were suspended in Tris buffer and used for experiments after confirming the presence of the mitochondrial marker cytochrome c.
Mitochondrial oxygen consumption was determined using a Clark-type oxygen electrode (Strathkelvin Instruments Ltd., North Lanarkshire, Scotland) as described, [39]. The mitochondria-enriched fraction was incubated at 30°C in oxygen measurement buffer (225 mM mannitol, 75 mM sucrose, 10 mM KCl, 0.1 mM EDTA, 3 mM phosphate, 5 mM succinate, 5 mM glutamate, and 20 mM Tris-HCl pH 7.4) in the presence or absence of various concentrations of the DIF-like molecules or CCCP. After recording ‘State 4’ of the respiration reaction, an aliquot of ADP was added to a final concentration of 200 µM to induce ‘State 3’. The PC100 (100% promoting concentration) of each additive was defined as the drug concentration that doubled the basal rate of oxygen consumption during State 3, which was calculated from the dose-response plot for the rate of oxygen consumption (Figure 8).

[2] = system: 3T3-L1 cells; assay: Cell growth assay (Alamar blue), 3T3-L1; assay type: cell-based, mouse; details: for IC50: Mus musculus, 72 h, 3T3-L1 cells, 3 days, Alamar blue; for Effect on cell growth in 3T3-L1 cells: BODIPY-DIF-3 5–20 µM, CCCP 2–10 µM, 4 days
Description: HeLa, LM8, and 3T3-L1 cells were cultured for 3 days at 2.5–5×10^3 cells/well in 12-well plates with each well filled with 1 ml of DMEM-FBS (for HeLa and 3T3-L1) or MEM-α-FBS (for LM8) together with drugs at various concentrations. Then, the incubation media were discarded and the cells were washed with 1 ml of PBS(–) (20 mM phosphate buffered saline, pH 7.4) and incubated with 1 ml of fresh DMEM-FBS (HeLa and 3T3-L1) or MEM-α-FBS (LM8) containing 5% (v/v) of Alamar blue (a cell number indicator; Wako Pure Chemical Industries, Osaka, Japan) until the color changed. The relative cell number was assessed by measuring absorbance at 570 nm (reference at 595 nm) as described previously, [14]; DIF-related compounds and BODIPY-conjugated compounds hardly disturbed the cell number assessment with Alamar blue (data not shown), probably because the additive compounds were washed out when cell number was assessed. For determination of the 50% inhibitory concentration (IC50) of each drug, the cells were cultured for 3 days in the presence of each drug at various concentrations. Relative cell numbers were determined for each concentration for each drug and the IC50 was determined from the dose-response curves.
Supplementary file pone.0072118.s002.tif: Figure S2 Effects of BODIPY-DIF-3 and CCCP on cell growth, and cellular localization of BODIPY-DIF-3 in 3T3-L1 cells. (A) Cells were incubated for 4 days with 5–20 µM of BODIPY-DIF-3 (closed circles) or 2–10 µM of CCCP (closed triangles), and relative cell number was assessed by the use of Alamar blue. Data are the mean values and SD (bars) of three independent experiments. (B) Cells were incubated for 0.5 h or 3 days with 20 µM of BODIPY-DIF-3, washed free of the additive, and observed microscopically. (C) Cells were incubated for 0.5 h with BODIPY-DIF-3 (20 µM), Hoechst (0.1 µg/ml), and MitoTracker (0.1 µM), washed free of the additives, and observed by using a high-magnification fluorescence microscope. (D) Cells were incubated for 3 days with BODIPY-DIF-3 (20 µM) and then for 0.5 h with Hoechst (0.1 µg/ml) and MitoTracker (0.1 µM). Cells were washed free of the additives and observed by using a high-magnification fluorescence microscope. (TIF) Click here for additional data file.

[3] = system: mitochondria in HeLa cells; assay: Mitochondrial morphology by fluorescence microscopy; assay type: cell-based, human; details: BODIPY-DIF-3 20 µM 1 day, Bu-DIF-3 5 µM, CCCP 10 µM 3 days
Description: For high magnification multi-color imaging, cells were incubated for the appropriate times with 2 ml of DMEM-FBS (HeLa and 3T3-L1) or MEM-α-FBS (LM8) containing various compounds in 35-mm plastic dishes (tissue culture treated µ-Dish; ibidi, Martinsried, Germany). The cells were washed twice with 2 ml of PBS(–), submerged in 2 ml of Hepes buffer (pH 7.4), and observed at room temperature with a Keyence BZ-9000 fluorescence microscope (Osaka, Japan) equipped with an oil immersion 100× lens (CFI Plan Apo VC100XH) and multi-filters that can distinguish four fluorescent probes simultaneously. Original digitized images of z-stack sections were taken at 0.4- µm intervals, which were then treated (haze-reduced) with the Keyence BZ analyzer software (for deconvolution fluorescence imaging), and compiled into 3D images; when 3D images were constructed, nonlinear adjustment was performed to obtain clear (high contrast) images without haze. All color images are presented in pseudo colors.

[4] = system: cyclin D1 and cyclin D3 in HeLa cells; assay: Western blotting of cyclin D expression; assay type: cell-based, human; details: 20 h, DIF-3 20 µM, Bu-DIF-3 5–7.5 µM, BODIPY-DIF-3 20 µM, CCCP 10 µM, azide 0.01%
Description: HeLa cells were incubated for 20 h with 1 ml of DMEM-FBS containing the indicated additives in 12-well plates (2–4×10^5 cells/well), washed twice with PBS(–), harvested by adding 100–200 µl of an SDS-sample buffer solution (in proportion to cell density: relative cell number), sonicated (heated), and used for SDS-PAGE. Western blot transfer and immunoblotting were performed as described previously, by using a primary antibody for cyclin D1, cyclin D2, cyclin D3, or GAPDH, and a second antibody, an alkaline phosphatase-conjugated anti-mouse or anti-rabbit IgG antibody. […] Visualized protein bands were then digitized and quantified by using Adobe Photoshop CS4 (version 11.0) (Adobe, San Jose, CA, USA) and ImageJ Software (version 1.4) (http://rsb.info.nih.gov/ij/).

Compound	Effect on basal rate of O2 consumption [1]	PC100 (µM) for Mito. O2 consumption [1] [µM]	IC50 [2] [µM]	Mitochondrial swelling [3]	Expression of cyclin D1 [4]	Expression of cyclin D3 [4]	Effect on cell growth in 3T3-L1 cells [2]	Effect on mitochondrial O2 consumption ([1]; 0.1–1 µM)
CCCCCC(=O)c1c(O)cc(OC)c(Cl)c1O [DIF-3, 1-(3-chloro-2,6-dihydroxy-4-methoxyphenyl)hexan-1-one]	dose-dependently promoted	12	> 20	the mitochondria in all cells swelled greatly	significantly decreased	significantly decreased	–	–
CCCCCC(=O)c1c(O)cc(OCCCCNC(=O)CCC2=[N+]3C(=Cc4c(C)cc(C)n4[B-]3(F)F)C=C2)c(Cl)c1O [BODIPY-DIF-3]	dose-dependently promoted	25	20	caused many mitochondria to swell in most cells within 1 day	significantly decreased	significantly decreased	dose-dependently suppressed cell growth	–
N#CC(C#N)=NNc1cccc(Cl)c1 [CCCP, carbonyl cyanide m-chlorophenylhydrazone, reference compound]	–	0.43	7.5	Mitochondrial swelling was induced in most HeLa cells	significantly suppressed	significantly suppressed	dose-dependently suppressed cell growth	promoted mitochondrial O2 consumption in a dose-dependent manner
CCCCCC(=O)c1c(O)cc(OCCCC)c(Cl)c1O [Bu-DIF-3, 1-(3-chloro-2,6-dihydroxy-4-butoxyphenyl)hexan-1-one]	dose-dependently promoted	1.7	4.3	the mitochondria in all cells swelled greatly	significantly decreased	significantly decreased	–	–
